Measured values: article PMC3166231 (Inorganic chemistry, 2010)
Counter-ions that a name gives are not always drawn. Like-named read-outs stand apart in the source and are kept apart here. Marks after values point to notes of the source that are not given here.

Experiments:
[1] = pH = 7.4, [Fe3+] = 1.0 × 10^−6 mol dm^−3, [L] = 1.0 × 10^−5 mol dm^−3, cited from earlier work
Literature Fe = type: binding; conditions: refs [19], [21]; for Δ1–2: difference K1 − K2 of cited stepwise constants; for Δ2–3: difference K2 − K3 of cited stepwise constants
[2] = cited from earlier work; for pFe: bidentate donor group, ref [17]–[20]; for K2 (proton independent stepwise formation constant): second ligand; for K3 (proton independent stepwise formation constant): third ligand
[3] = ref [14]; cited from earlier work

## Cn1cccc(O)c1=O [1-methyl-3-hydroxypyridin-2-one]
[1]; ref [63]
  pFe: 16 ^b

## O=c1[nH]cccc1O [3,2-HOPO]
Literature Fe
  Δ1–2: 1.71
  Δ2–3: 1.76
[2]
  pFe: 16.26
[2]; iron complex, first ligand, ref [19], [21]
  K1 (proton independent stepwise formation constant): 11.48
[2]; iron complex, ref [19], [21]
  K2 (proton independent stepwise formation constant): 9.77
  K3 (proton independent stepwise formation constant): 8.01

## Oc1cccnc1O [3-hydroxy-2-pyridinone]
[3]
  pKa of the 3-hydroxy-2-pyridinone donor group alone: 8.66

## O=C(O)c1ccc(-n2nc(-c3ccccc3O)nc2-c2ccccc2O)cc1 [Deferasirox, deferasirox]
[1]; ref [65]
  pFe: 23.5 ^d

## Cc1c(O)c(=O)ccn1C [Deferiprone, 1,2-dimethyl-3-hydroxy-4-pyridinone]
[1]; ref [64]
  pFe: 19.4 ^c

## CC(=O)N(O)CCCCCNC(=O)CCC(=O)N(O)CCCCCNC(=O)CCC(=O)N(O)CCCCCN [Deferrioxamine B, desferrioxamine B mesylate]
[1]; ref [67]
  pFe: 26.6 ^h

## Oc1ccccc1O [catechol]
Literature Fe
  Δ1–2: 4.9
  Δ2–3: 6.1
[2]
  pFe: 15.1
[2]; iron complex, ref [19], [21]
  K2 (proton independent stepwise formation constant): 15.5
  K3 (proton independent stepwise formation constant): 9.4

## Transferrin: iron transport protein used as pFe comparison
[1]; ref [66]
  pFe: 23.6 ^e
